Experiment [1] has as its target T1, Succinate-semialdehyde dehydrogenase, mitochondrial (Homo sapiens, UniProt P51649).
T1 sequence (P51649 whole entry): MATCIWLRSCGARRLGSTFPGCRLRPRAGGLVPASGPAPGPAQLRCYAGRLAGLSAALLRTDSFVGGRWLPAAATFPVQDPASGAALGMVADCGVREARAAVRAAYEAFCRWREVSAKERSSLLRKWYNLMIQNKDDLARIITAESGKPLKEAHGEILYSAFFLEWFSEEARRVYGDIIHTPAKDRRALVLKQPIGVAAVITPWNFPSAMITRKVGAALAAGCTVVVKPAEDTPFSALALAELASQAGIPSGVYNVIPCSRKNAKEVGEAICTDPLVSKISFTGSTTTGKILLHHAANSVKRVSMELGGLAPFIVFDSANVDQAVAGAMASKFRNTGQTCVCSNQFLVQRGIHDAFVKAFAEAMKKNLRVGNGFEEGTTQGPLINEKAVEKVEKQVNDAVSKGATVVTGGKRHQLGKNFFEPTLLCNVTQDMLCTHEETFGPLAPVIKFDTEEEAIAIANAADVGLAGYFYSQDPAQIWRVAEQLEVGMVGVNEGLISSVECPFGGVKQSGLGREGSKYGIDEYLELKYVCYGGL
Put plainly: Inhibitory activity against SSADH.

In experiment [2] the target is 4-aminobutyrate aminotransferase, mitochondrial (Homo sapiens, UniProt P80404). As to the kind of experiment: Inhibitory activity against GABAT.

The values that follow come from BindingDB's records for doi:10.1016/j.bmcl.2005.10.040 (Huazhong University of Science and Technology, 2005).

Each structure is given as a SMILES string.

4-aminobutyrate aminotransferase, mitochondrial, sequence (P80404 whole entry): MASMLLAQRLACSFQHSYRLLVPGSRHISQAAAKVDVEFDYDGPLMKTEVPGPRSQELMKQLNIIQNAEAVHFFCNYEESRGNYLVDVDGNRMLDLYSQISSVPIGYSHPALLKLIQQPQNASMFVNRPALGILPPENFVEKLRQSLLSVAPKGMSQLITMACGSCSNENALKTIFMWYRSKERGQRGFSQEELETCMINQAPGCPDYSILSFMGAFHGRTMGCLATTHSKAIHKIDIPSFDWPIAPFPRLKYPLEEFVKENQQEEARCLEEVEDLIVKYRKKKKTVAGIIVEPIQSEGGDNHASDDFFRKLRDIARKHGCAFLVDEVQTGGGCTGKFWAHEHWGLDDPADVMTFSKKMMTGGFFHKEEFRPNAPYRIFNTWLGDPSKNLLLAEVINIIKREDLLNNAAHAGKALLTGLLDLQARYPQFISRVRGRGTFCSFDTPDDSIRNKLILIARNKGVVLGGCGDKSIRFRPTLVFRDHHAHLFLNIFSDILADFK

As to `O=NCc1ccc(O)cc1` [4-hydroxybenzaldehyde oxime], the IC50 in experiment [1] and in experiment [2] was over 1000 µM throughout.
On to `COc1cc(CN=O)ccc1O` [4-hydroxy-3-methoxybenzaldehyde oxime], for which the IC50 in experiment [1] and in experiment [2] was over 1000 µM throughout.

What is called IC50 is the concentration that gives 50% inhibition. A low value points to inhibition by little substance.
